According to the CheMixHub viscosity set:

Test: xn = mol fraction of the nth substance listed

OCCCO + CS(C)=O
viscosity [mPa·s], 101 kPa
Conditions	293.15 K	298.15 K	303.15 K	308.15 K	313.15 K	318.15 K
x1 = 0.0513	2.47	2.13	2.03	1.84	1.7	1.61
x1 = 0.1024	2.88	2.59	2.32	2.09	1.89	1.78
x1 = 0.1534	3.26	2.95	2.63	2.35	2.14	2
x1 = 0.2043	3.74	3.35	2.99	2.67	2.4	2.24
x1 = 0.255	4.29	3.84	3.41	3.02	2.71	2.41
x1 = 0.3056	4.96	4.32	3.8	3.43	3.09	–
x1 = 0.356	5.73	5.04	4.44	3.87	3.47	–
x1 = 0.4064	6.64	5.81	5.05	4.42	3.92	–
x1 = 0.4566	7.69	6.73	5.82	5.05	4.46	–
x1 = 0.5066	9	7.73	6.65	5.81	5.08	–
x1 = 0.5565	10.6	9.09	7.76	6.67	5.81	–
x1 = 0.6063	12.5	10.6	9.02	7.72	6.7	–
x1 = 0.6556	14.7	12.5	10.6	8.96	7.67	–
x1 = 0.7055	17.6	14.8	12.4	10.4	8.88	–
x1 = 0.7549	21	17.6	14.6	12.2	10.3	–
x1 = 0.8042	25.2	21	17.3	14.3	12	–
x1 = 0.8533	30.4	25	20.5	16.8	14	–
x1 = 0.9024	36.5	29.8	24.2	19.7	16.4	–
x1 = 0.9512	43.8	35.5	28.5	23.1	19	–

NC=O + O
viscosity [mPa·s]
Conditions	101 kPa	101.33 kPa
293.15 K, x1 = 0.0753	1.098	–
293.15 K, x1 = 0.1519	1.195	–
293.15 K, x1 = 0.2309	1.318	–
293.15 K, x1 = 0.2959	1.446	–
293.15 K, x1 = 0.3852	1.603	–
298.15 K, x1 = 0.00687	0.921	–
298.15 K, x1 = 0.1	0.9871	–
298.15 K, x1 = 0.1001	1.044	–
298.15 K, x1 = 0.1998	1.161	–
298.15 K, x1 = 0.2	1.121	–
298.15 K, x1 = 0.212	1.182	–
298.15 K, x1 = 0.3	1.262	–
298.15 K, x1 = 0.3003	1.315	–
298.15 K, x1 = 0.304	1.283	–
298.15 K, x1 = 0.3989	1.463	–
298.15 K, x1 = 0.4	1.43	–
298.15 K, x1 = 0.4997	1.698	–
298.15 K, x1 = 0.5	1.631	–
298.15 K, x1 = 0.551	2.101	–
298.15 K, x1 = 0.5997	1.927	–
298.15 K, x1 = 0.6	1.868	–
298.15 K, x1 = 0.6029	2.275	–
298.15 K, x1 = 0.692	2.142	–
298.15 K, x1 = 0.7	2.138	–
298.15 K, x1 = 0.8	2.471	–
298.15 K, x1 = 0.8004	2.508	–
298.15 K, x1 = 0.9	2.881	–
298.15 K, x1 = 0.9013	2.906	–
303.15 K, x1 = 0.0964	–	0.8965
303.15 K, x1 = 0.1998	–	1.015
303.15 K, x1 = 0.2994	–	1.15
303.15 K, x1 = 0.3996	–	1.298
303.15 K, x1 = 0.4999	–	1.474
303.15 K, x1 = 0.5995	–	1.662
303.15 K, x1 = 0.6999	–	1.878
303.15 K, x1 = 0.8001	–	2.139
303.15 K, x1 = 0.9	–	2.432
308.15 K, x1 = 0.0964	–	0.8135
308.15 K, x1 = 0.1	0.8181	–
308.15 K, x1 = 0.1998	–	0.9213
308.15 K, x1 = 0.2	0.9244	–
308.15 K, x1 = 0.2994	–	1.047
308.15 K, x1 = 0.3	1.047	–
308.15 K, x1 = 0.3996	–	1.182
308.15 K, x1 = 0.4	1.183	–
308.15 K, x1 = 0.4999	–	1.34
308.15 K, x1 = 0.5	1.342	–
308.15 K, x1 = 0.5995	–	1.506
308.15 K, x1 = 0.6	1.523	–
308.15 K, x1 = 0.6999	–	1.697
308.15 K, x1 = 0.7	1.731	–
308.15 K, x1 = 0.8	2.002	–
308.15 K, x1 = 0.8001	–	1.926
308.15 K, x1 = 0.9	2.307	2.18
313.15 K, x1 = 0.0964	–	0.7424
313.15 K, x1 = 0.1001	0.734	–
313.15 K, x1 = 0.1998	0.835	0.8455
313.15 K, x1 = 0.2994	–	0.9584
313.15 K, x1 = 0.3003	0.949	–
313.15 K, x1 = 0.3989	1.091	–
313.15 K, x1 = 0.3996	–	1.08
313.15 K, x1 = 0.4997	1.23	–
313.15 K, x1 = 0.4999	–	1.221
313.15 K, x1 = 0.5995	–	1.373
313.15 K, x1 = 0.5997	1.402	–
313.15 K, x1 = 0.692	1.545	–
313.15 K, x1 = 0.6999	–	1.543
313.15 K, x1 = 0.8001	–	1.746
313.15 K, x1 = 0.8004	1.813	–
313.15 K, x1 = 0.9	–	1.967
313.15 K, x1 = 0.9013	2.102	–
318.15 K, x1 = 0.0964	–	0.6812
318.15 K, x1 = 0.1	0.6761	–
318.15 K, x1 = 0.1998	–	0.7768
318.15 K, x1 = 0.2	0.7811	–
318.15 K, x1 = 0.2994	–	0.8815
318.15 K, x1 = 0.3	0.8781	–
318.15 K, x1 = 0.3996	–	0.993
318.15 K, x1 = 0.4	0.9948	–
318.15 K, x1 = 0.4999	–	1.121
318.15 K, x1 = 0.5	1.12	–
318.15 K, x1 = 0.5995	–	1.259
318.15 K, x1 = 0.6	1.259	–
318.15 K, x1 = 0.6999	–	1.409
318.15 K, x1 = 0.7	1.42	–
318.15 K, x1 = 0.8	1.604	–
318.15 K, x1 = 0.8001	–	1.59
318.15 K, x1 = 0.9	1.812	1.788
323.15 K, x1 = 0.0964	–	0.6275
323.15 K, x1 = 0.1998	–	0.7165
323.15 K, x1 = 0.2994	–	0.8121
323.15 K, x1 = 0.3996	–	0.9187
323.15 K, x1 = 0.4999	–	1.032
323.15 K, x1 = 0.5995	–	1.158
323.15 K, x1 = 0.6999	–	1.292
323.15 K, x1 = 0.8001	–	1.457
323.15 K, x1 = 0.9	–	1.629
